The values below come from US4521406A, “Antitumor agent” (priority 1980, dated 1985).

The conditions of data set [1]: general statement; cited from earlier work.
The subject of data set [2] is tumor. The following applies: general statement; cited from earlier work.
The test system of data set [3] is Glioblastoma cancer cells. Briefly: Glioblastoma transplanted into the brain of rats, survival (Experimental Example 6). The following applies: 5-fluorocytosine 4 ml (10 mg/ml) i.p. every other day; 0.02 ml cytosinedeaminase (1 IU/ml) or PBS to transplantation site.
The subject of data set [4] is tumor. Briefly: General statements on antitumor activity. The following applies: applicant's summary of Experimental Examples 1 to 6.
Data set [5] has as its system HeLa cells. Briefly: Growth inhibition of HeLa cells (Experimental Example 1). The settings on record: for number of cells: drug used alone (control).
For data set [6], the system named is human Glioblastoma. Briefly: Morphological changes of human Glioblastoma (Experimental Example 4). In kind it is cell-based. The settings on record: 50 μg/ml.

SMILES strings stand for the structures. “Also recorded” adds a separate entry of the source.

On to `O=c1[nH]c(=O)n(C2CCCO2)cc1F` (stereo not drawn) [tetrahydrofuryl 5-fluorouracil], for which, in data set [1], the toxicity entry is on record as “low toxicity”.
`O=c1[nH]cc(F)c(=O)[nH]1` [5-fluorouracil]: the toxicity entry in data set [1] was “intense toxicity in oral and intravenous administrations”. In addition, the antitumor activity entry in data set [2] is “intense antitumor activity; also recorded: effective against solid tumors”.
Take `Nc1nc(=O)[nH]cc1F` [5-fluorocytosine]: in data set [3], the “Average days of survival” value stood at 32 days. For the same molecule, the “antitumor activity of the individual agents / of combined use” value in data set [4] is reported as “neither 5-fluorocytosine nor cytosinedeaminase has antitumor activity”. In addition, the number of cells in data set [5] (2 days elapsed, 24 h contact) is recorded as 73 ×10^-4 cells/ml; in data set [5] (4 days elapsed, 24 h contact), 120 ×10^-4 cells/ml; in data set [5] (6 days elapsed, 24 h contact), 205 ×10^-4 cells/ml; in data set [5] (day 0, before 24 h treatment), 29 ×10^-4 cells/ml. Further, the “antitumor activity when used singly” value in data set [5] (HeLa cells, used alone, result in words) is “do not have any antitumor activity”. In addition, the morphological changes entry in data set [6] was “morphological changes such as the disintegration of the cytoplasm and the deformation of the nucleus were evidently noted”. For the same molecule, the antitumor activity result in data set [2] is “no antitumor activity”.
